Values after ≈ are worked out from the molar mass of the structure shown.

The test system of series [1] is Candida albicans. Put plainly: Antifungal activity against Candida albicans 21 assessed as fungal growth inhibition incubated for 48 hrs by broth microdilution method. It is filed as functional. Background: In broth dilution the organism is exposed to a series of concentrations in liquid medium.
Series [2] deals with Candida albicans. The series is described as follows: Antifungal activity against Candida albicans 22 assessed as fungal growth inhibition incubated for 48 hrs by broth microdilution method. Format: functional.
In series [3] the test system is Candida albicans. Put plainly: Antifungal activity against Candida albicans SC5314 assessed as fungal growth inhibition incubated for 48 hrs by broth microdilution method. Format: functional.
Series [4] relates to Candida tropicalis. The series is described as follows: Antifungal activity against Candida tropicalis 176 assessed as fungal growth inhibition incubated for 48 hrs by broth microdilution method. It is filed as functional.
For series [5], the system named is Candida tropicalis. Put plainly: Antifungal activity against Candida tropicalis 184 assessed as fungal growth inhibition incubated for 48 hrs by broth microdilution method. Format: functional.
Series [6] deals with Pichia kudriavzevii. Put plainly: Antifungal activity against Candida krusei 69 assessed as fungal growth inhibition incubated for 48 hrs by broth microdilution method. It is filed as functional.
The subject of series [7] is Candida parapsilosis. Put plainly: Antifungal activity against Candida parapsilosis 107 assessed as fungal growth inhibition incubated for 48 hrs by broth microdilution method. Format: functional. The note with it: Lodderomyces parapsilosis.
The subject of series [8] is Nakaseomyces glabratus. Put plainly: Antifungal activity against Candida glabrata 201 assessed as fungal growth inhibition incubated for 48 hrs by broth microdilution method. It is filed as functional.
Series [9] concerns Nakaseomyces glabratus. The series is described as follows: Antifungal activity against Candida glabrata 205 assessed as fungal growth inhibition incubated for 48 hrs by broth microdilution method. Format: functional.
In series [10] the test system is Aspergillus fumigatus. The series is described as follows: Antifungal activity against Aspergillus fumigatus 023-12 assessed as fungal growth inhibition incubated for 48 hrs by broth microdilution method. Format: functional.
Series [11] has as its system Aspergillus fumigatus. The series is described as follows: Antifungal activity against Aspergillus fumigatus 7544 assessed as fungal growth inhibition incubated for 48 hrs by broth microdilution method. It is filed as functional.
In series [12] the test system is Aspergillus fumigatus. Put plainly: Antifungal activity against Aspergillus fumigatus A assessed as fungal growth inhibition incubated for 48 hrs by broth microdilution method. Format: functional.
The nature of series [13]: Cytotoxicity against human Caco-2 cells assessed as cell growth inhibition incubated for 24 hrs by CCK8 assay. It is filed as toxicity, cell-based.
The subject of series [14] is Pichia kudriavzevii. The series is described as follows: Antifungal activity against Candida krusei 477 assessed as fungal growth inhibition incubated for 48 hrs by broth microdilution method. Format: functional.
The test system of series [15] is Nakaseomyces glabratus. Put plainly: Antifungal activity against Candida glabrata 202 assessed as fungal growth inhibition incubated for 48 hrs by broth microdilution method. Format: functional.
The subject of series [16] is Cryptococcus neoformans. Put plainly: Antifungal activity against Cryptococcus neoformans 444 assessed as fungal growth inhibition incubated for 48 hrs by broth microdilution method. It is filed as functional.
The test system of series [17] is Candida parapsilosis. Put plainly: Antifungal activity against Candida parapsilosis 105 assessed as fungal growth inhibition incubated for 48 hrs by broth microdilution method. Format: functional. The conditions noted are these: Lodderomyces parapsilosis.
The test system of series [18] is Candida tropicalis. Put plainly: Antifungal activity against Candida tropicalis 178 assessed as fungal growth inhibition incubated for 48 hrs by broth microdilution method. Format: functional.
The test system of series [19] is Cryptococcus neoformans. Put plainly: Antifungal activity against Cryptococcus neoformans 445 assessed as fungal growth inhibition incubated for 48 hrs by broth microdilution method. Format: functional.
The test system of series [20] is Pichia kudriavzevii. Put plainly: Antifungal activity against Candida krusei 68 assessed as fungal growth inhibition incubated for 48 hrs by broth microdilution method. It is filed as functional.
Series [21] relates to Cryptococcus neoformans. Put plainly: Antifungal activity against Cryptococcus neoformans 443 assessed as fungal growth inhibition incubated for 48 hrs by broth microdilution method. It is filed as functional.
Series [22] relates to Candida parapsilosis. Put plainly: Antifungal activity against Candida parapsilosis 125 assessed as fungal growth inhibition incubated for 48 hrs by broth microdilution method. It is filed as functional. The note with it: Lodderomyces parapsilosis.

As to `CC(C)C(=O)NC(c1ccc(OC(F)(F)F)cc1)c1ccc2cccnc2c1O` (stereo not given), the MIC is 1 µg/mL (≈ 2.47 µM) with Candida albicans [1], 1 µg/mL (≈ 2.47 µM) in the series with Candida albicans [2] and 0.5 µg/mL (≈ 1.24 µM) in the series on Candida albicans [3].

Turning to `CN(C)c1ccc(C(NC(=O)Cc2ccccc2)c2ccc3cccnc3c2O)cc1` (stereo not given), the figures for the MIC with Candida albicans [1], in the series on Candida albicans [2] and in the series on Candida albicans [3] were 0.5 µg/mL (≈ 1.22 µM), 2 µg/mL (≈ 4.86 µM) and 0.25 µg/mL (≈ 0.608 µM), respectively.

Regarding `CCCC(=O)NC(c1ccccc1)c1ccc2cccnc2c1O` (stereo not given), the MIC in the series on Candida albicans [1], in the series on Candida albicans [2] and in the series on Candida albicans [3] was 1 µg/mL (≈ 3.12 µM) each time.

As to `CSc1ccc(C(NC(=O)C(C)C)c2ccc3cccnc3c2O)cc1` (stereo not given), the MIC in the series with Candida albicans [1] came out at 1 µg/mL (≈ 2.73 µM); in the series with Candida albicans [2] it was 2 µg/mL (≈ 5.46 µM); in the series with Candida albicans [3], 2 µg/mL (≈ 5.46 µM).

For the compound `COc1ccc(C(NC(=O)Cc2ccccc2)c2ccc3cccnc3c2O)cc1OC` (stereo not given), the MIC in the series on Candida albicans [1], with Candida albicans [2] and in the series with Candida albicans [3] was 0.5 µg/mL (≈ 1.17 µM) throughout.

As for `O=C(Cc1ccccc1)NC(c1ccc(Cl)c(Cl)c1)c1ccc2cccnc2c1O` (stereo not given), the MIC in the series with Candida albicans [1] worked out at 1 µg/mL (≈ 2.29 µM); in the series with Candida albicans [2], 1 µg/mL (≈ 2.29 µM); in the series on Candida albicans [3], 0.5 µg/mL (≈ 1.14 µM).

As to `CC(C)C(=O)NC(c1ccc(C(F)(F)F)cc1)c1ccc2cccnc2c1O` (stereo not given), the MIC in the series on Candida albicans [1] came out at 1 µg/mL (≈ 2.57 µM); in the series on Candida albicans [2], 2 µg/mL (≈ 5.15 µM); with Candida albicans [3] it was 1 µg/mL (≈ 2.57 µM).

For `O=C(Cc1ccccc1)NC(c1ccc(F)c(Cl)c1)c1ccc2cccnc2c1O` (stereo not given), the MIC turned out to be 0.5 µg/mL (≈ 1.19 µM) in the series with Candida albicans [1], 1 µg/mL (≈ 2.38 µM) with Candida albicans [2] and 0.5 µg/mL (≈ 1.19 µM) in the series on Candida albicans [3].

Take `CCC(=O)NC(c1cccc([N+](=O)[O-])c1)c1ccc2cccnc2c1O` (stereo not given): the MIC in the series with Candida albicans [1], in the series on Candida albicans [2] and in the series on Candida albicans [3] was 4 µg/mL (≈ 11.4 µM) throughout.

Take `CC(C)C(=O)NC(c1ccc(OC(F)F)cc1)c1ccc2cccnc2c1O` (stereo not given): the MIC is 0.5 µg/mL (≈ 1.29 µM) with Candida albicans [1], 0.5 µg/mL (≈ 1.29 µM) in the series with Candida albicans [2] and 1 µg/mL (≈ 2.59 µM) in the series with Candida albicans [3].

For the compound `COc1ccc(C(NC(=O)CC(C)C)c2ccc3cccnc3c2O)cc1OC` (stereo not given), the MIC in the series with Candida albicans [1], in the series on Candida albicans [2] and in the series on Candida albicans [3] was 0.5 µg/mL (≈ 1.27 µM) each time.

Consider `CCCC(=O)NC(c1cccc([N+](=O)[O-])c1)c1ccc2cccnc2c1O` (stereo not given), for which the MIC in the series with Candida albicans [1], with Candida albicans [2] and with Candida albicans [3] was 1 µg/mL (≈ 2.74 µM) in each case.

As to `CC(=O)NC(c1ccc2ccccc2c1)c1ccc2cccnc2c1O` (stereo not given), the MIC in the series with Candida albicans [1] worked out at 0.5 µg/mL (≈ 1.46 µM); in the series with Candida albicans [2], 0.125 µg/mL (≈ 0.365 µM); in the series with Candida albicans [3], 0.25 µg/mL (≈ 0.73 µM).

In the case of `Cc1ccc(C(NC(=O)Cc2ccccc2)c2ccc3cccnc3c2O)cc1` (stereo not given), the MIC amounted to 0.25 µg/mL (≈ 0.654 µM) in the series with Candida albicans [1], 1 µg/mL (≈ 2.61 µM) in the series with Candida albicans [2] and 1 µg/mL (≈ 2.61 µM) with Candida albicans [3].

Take `O=C(Cc1ccccc1)NC(c1ccc(OC(F)F)cc1)c1ccc2cccnc2c1O` (stereo not given): the figures for the MIC in the series with Candida albicans [1], with Candida albicans [2] and in the series with Candida albicans [3] were 0.5 µg/mL (≈ 1.15 µM), 0.5 µg/mL (≈ 1.15 µM) and 1 µg/mL (≈ 2.3 µM), respectively.

As for `CCN(CC)c1ccc(C(NC(=O)CCc2ccccc2)c2ccc3cccnc3c2O)cc1` (stereo not given), the MIC with Candida albicans [1] came to 0.25 µg/mL (≈ 0.551 µM); in the series with Candida albicans [2] it was 1 µg/mL (≈ 2.2 µM); with Candida albicans [3], 2 µg/mL (≈ 4.41 µM).

Turning to `CC(C)C(=O)NC(c1ccc(Br)cc1)c1ccc2cccnc2c1O` (stereo not given), the MIC was determined as 0.5 µg/mL (≈ 1.25 µM) in the series on Candida albicans [1], 1 µg/mL (≈ 2.5 µM) in the series with Candida albicans [2] and 2 µg/mL (≈ 5.01 µM) with Candida albicans [3].

`COc1ccc(C(NC(C)=O)c2ccc3cccnc3c2O)c(OC)c1` (stereo not given): the MIC in the series on Candida albicans [1], in the series on Candida albicans [2] and in the series with Candida albicans [3] was 4 µg/mL (≈ 11.4 µM) in each case.

As for `CC(C)C(=O)NC(c1ccc(S(C)(=O)=O)cc1)c1ccc2cccnc2c1O` (stereo not given), the figures for the MIC with Candida albicans [1], in the series on Candida albicans [2] and with Candida albicans [3] were 2 µg/mL (≈ 5.02 µM), 1 µg/mL (≈ 2.51 µM) and 2 µg/mL (≈ 5.02 µM), respectively.

As to `CN1CCN(C(c2ccncc2)c2ccc3cccnc3c2O)CC1` (stereo not given), the MIC in the series with Candida albicans [1], with Candida albicans [2] and with Candida albicans [3] was 4 µg/mL (≈ 12 µM) in each case.

With `CC(C)C(=O)NC(c1ccc(Cl)c(Cl)c1)c1ccc2cccnc2c1O` (stereo not given), the MIC in the series with Candida albicans [1] came out at 0.25 µg/mL (≈ 0.642 µM); with Candida albicans [2] it was 1 µg/mL (≈ 2.57 µM); in the series with Candida albicans [3], 1 µg/mL (≈ 2.57 µM).

As to `Cc1ccc(C(NC(=O)CC(C)C)c2ccc3cccnc3c2O)cc1` (stereo not given), the MIC with Candida tropicalis [4] is 0.032 µg/mL (≈ 0.0918 µM); in the series on Candida albicans [1], 0.125 µg/mL (≈ 0.359 µM); with Candida tropicalis [5] it was 0.125 µg/mL (≈ 0.359 µM); with Pichia kudriavzevii [6], 0.125 µg/mL (≈ 0.359 µM); in the series on Candida parapsilosis [7], 0.125 µg/mL (≈ 0.359 µM); in the series with Nakaseomyces glabratus [8], 0.125 µg/mL (≈ 0.359 µM). The MIC in the series on Nakaseomyces glabratus [9] worked out at 0.125 µg/mL (≈ 0.359 µM); with Aspergillus fumigatus [10], 0.25 µg/mL (≈ 0.717 µM); in the series with Aspergillus fumigatus [11], 0.5 µg/mL (≈ 1.43 µM); in the series on Aspergillus fumigatus [12], 0.5 µg/mL (≈ 1.43 µM); with Pichia kudriavzevii [14], 0.125 µg/mL (≈ 0.359 µM); with Nakaseomyces glabratus [15], 0.125 µg/mL (≈ 0.359 µM). For the same compound, the MIC in the series on Cryptococcus neoformans [16] was 0.016 µg/mL (≈ 0.0459 µM); with Candida parapsilosis [17], 0.032 µg/mL (≈ 0.0918 µM); in the series on Candida tropicalis [18], 0.032 µg/mL (≈ 0.0918 µM); in the series with Cryptococcus neoformans [19] it was 0.016 µg/mL (≈ 0.0459 µM); in the series with Candida albicans [2] it was 0.125 µg/mL (≈ 0.359 µM); with Pichia kudriavzevii [20] it was 0.125 µg/mL (≈ 0.359 µM). Also, the MIC with Cryptococcus neoformans [21] stood at 0.016 µg/mL (≈ 0.0459 µM); in the series on Candida parapsilosis [22] it was 0.125 µg/mL (≈ 0.359 µM); in the series with Candida albicans [3] it was 0.125 µg/mL (≈ 0.359 µM). The IC50 at 24 h in [13] is 32 µg/mL (≈ 91.8 µM).

The term MIC denotes the lowest concentration found to suppress growth. A word on the IC50: it is the midpoint of a concentration-inhibition curve.

These data come from ChEMBL document CHEMBL5375952, “Discovery of Novel 8-Hydroxyquinoline Derivatives with Potent In Vitro and In Vivo Antifungal Activity” (J Med Chem, 2023).
